PMC7714071, “Interaction of amyloid beta with humanin and acetylcholinesterase is modulated by ATP” (FEBS Open Bio, 2020)

Assays:
[1] = tested on: AChE-Aβ complex (A549 cell-conditioned media); assay: ELISA, AChE found in a complex with Aβ in A549 cell-conditioned media; assay type: binding, human
Protocol: (§1) Human NSCLC cell lines, A549 (ATCC CCL‐185) and H1299 (ATCC CRL‐5803), were purchased from the American Type Culture Collection (ATCC, Manassas, VA, USA). Cells were seeded as we reported earlier in 5 mL HyClone Dulbecco's modified Eagle's medium/nutrient mixture F‐12 (DMEM/F12) (GE Healthcare Life Sciences, Pittsburgh, PA, USA), supplemented with 10% Fetalgro bovine growth serum (FBS; RMBIO, Missoula, MT, USA), 50 U·mL^−1 penicillin, and […] streptomycin (Invitrogen, Life Technologies, Carlsbad, CA, USA) in 25‐cm^2 tissue culture flasks, and allowed to grow overnight in an incubator at 37 °C, 95% humidity, and 5% CO2. The cells were counted after trypan blue staining, with a hemocytometer.
ELISAs were carried out as we previously reported. Nunc MaxiSorp 96‐well flat bottom plate (Thermo Fisher) wells were coated with samples as indicated. The plates were incubated overnight at 4 °C on a shaker to allow binding of the samples to the plate wells. After the incubation, the wells were washed 4× with TBST, filled with 400 µL blocking buffer (110 mM KCl, 5 mM NaHCO3, 5 mM MgCl2, 1 mM EGTA, 0.1 mM CaCl2, 20 mM HEPES, 1% BSA, pH 7.4), and incubated with shaking overnight at 4 °C. […] TBST was then used to wash the wells 4× before proceeding in one of two ways: (a) biotinylated samples were analyzed by adding 100 µL streptavidin–HRP conjugate in TBST (1 : 2500 dilution) to the samples followed by incubation for 3 h at RT on a shaker, or (b) samples without biotin were analyzed by adding 100 µL TBST containing the primary antibody as per the manufacturer's recommendation, incubating for 3 h at RT on a shaker, followed by washing the wells 4× with TBST. […] The reaction was stopped with 100 µL 2 M H2SO4 after incubating at RT for 0.5–15 min, resulting in a yellow color change, measured by absorbance at 450 nm. […] Before analysis, the OD from the data was corrected for nonspecific binding by subtracting the mean background absorbance for the negative controls. […] Statistical analysis was determined by the […] […] Data were expressed as the mean ± SD. […]

[2] = tested on: HN-Aβ complex (H1299 cell-conditioned media); assay: ELISA, HN found in a complex with Aβ in H1299 cell-conditioned media; assay type: binding, human; details: ATP 100 μM, 1 mM; increased levels, compared with A549 media; Fig. 5C,D
Protocol: as §1
ELISAs were carried out as we previously reported. […] TBST was then used to wash the wells 4× before proceeding in one of two ways: (a) biotinylated samples were analyzed by adding 100 µL streptavidin–HRP conjugate in TBST (1 : 2500 dilution) to the samples followed by incubation for 3 h at RT on a shaker, or (b) samples without biotin were analyzed by adding 100 µL TBST containing the primary antibody as per the manufacturer's recommendation, incubating for 3 h at RT on a shaker, followed by washing the wells 4× with TBST. […] The reaction was stopped with 100 µL 2 M H2SO4 after incubating at RT for 0.5–15 min, resulting in a yellow color change, measured by absorbance at 450 nm. […]

H1299 cells = details: cited from earlier work
Aβ42 [3] = details: binds directly to Aβ42; cited from earlier work
Description: Almost all types of cells produce amyloid beta (Aβ), a peptide well recognized for its role in the development and progression of different stages of Alzheimer's disease (AD). The Aβ peptide is ~ 4 kDa and derived from the sequential processing of the higher molecular weight amyloid precursor protein by two membrane‐bound endoproteases, β‐ and γ‐secretase. Different C‐terminal Aβ heterogeneity results from processing by γ‐secretase, where Aβ40 represents the most abundant isoform (~ 90%) as compared to Aβ42 (~ 10%). Self‐assembled Aβ40/42 peptides into amyloid fib ... || Amino acid residues involved in direct interactions between HN and Aβ40 were identified previously by molecular modeling. The specific epitopes at the binding interface between HN and Aβ40 were identified, by proteolytic epitope excision and extraction in addition to affinity–mass spectrometric data analysis, to be HN (5–15) and Aβ (17–28). […] Inhibiting the 17–28 region of Aβ reduced aggregation of the neurotoxic amyloid fibrils and related cytotoxicity in SH‐SY5Y, a human neuroblastoma cell ... || Acetylcholinesterase (AChE) is an enzyme known for its role in terminating acetylcholine‐mediated neurotransmission at the synaptic cleft. The majority of the cortical AChE in the Alzheimer's brain is mainly associated with the amyloid core of senile plaques. […]

Aβ42 [4] = details: HN and AChE compared; cited from earlier work
Description: Humanin has been previously reported to bind amino acid residues 17–28 of Aβ (Fig. 1). AChE is also known to bind Aβ (1–16) and the Aβ (12–28) region (Fig. 1). Since the binding sites of AChE and HN on Aβ are overlapping, we previously investigated whether HN and AChE can simultaneously bind Aβ [79].

**Q.** Which “decrease in levels of AChE found in a complex with Aβ” value ([1]; 100 μM ATP, 6E10 or 82E1 on wells, three experiments in triplicate, Fig. 5A) does the source give for Nc1ncnc2c1ncn2[C@@H]1O[C@H](COP(=O)(O)OP(=O)(O)OP(=O)(O)O)[C@@H](O)[C@H]1O [ATP, Adenosine triphosphate] here?
**A.** ~ 2.3 fold

**Q.** And the “levels of AChE found in a complex with Aβ” value ([1]; 1 mM ATP, 6E10 or 82E1 on wells, Fig. 5A)?
**A.** decreased to almost blank levels

**Q.** And the “Aβ detected on anti-AChE wells upon ATP addition” value ([1]; anti-AChE on wells, Aβ detected by 6E10 or 82E1, Fig. 5B)?
**A.** comparable decrease in the levels of Aβ

**Q.** And the “levels of HN bound to Aβ in the presence of ATP” value [2]?
**A.** also comparable

**Q.** What does the source list for Humanin [HN]?
**A.** cell viability upon ID of HN (H1299 cells; HN immunodepleted from H1299 conditioned media): diminished cell viability; apoptosis upon ID of HN (H1299 cells; HN-ID H1299 media): increased apoptosis; antioligomeric activity (Aβ42 [3]): exhibit antioligomeric activity; affinity for Aβ42 (Aβ42 [4]): comparable affinities
